From patent US6583127B1, “Use of etherlysophospholipids as antiinflammatory agents” (Inkeysa. SA, priority 1998, dated 2003)
Where two headings read alike, the source gives them in different places.

Key:
CD44 = assay: Cell surface expression of CD44 in human neutrophils (immunofluorescence flow cytometry); assay type: cell-based; settings: Medium = 100
From the text: (§1) Isolation and treatment of neutrophils.
(§2) Monoclonal antibodies. […] The antibodies are commercially available.
(§3) Immunofluorescence flow cytometry. […] Results were expressed as relative MFI (rMFI), such that
(§4) rMFI=(MFIagent×100)/MFImedium
(§5) Background fluorescence was substracted from all values.

L-selectin (CD62L) = assay: Cell surface expression of L-selectin in human neutrophils (immunofluorescence flow cytometry); assay type: cell-based; settings: for L-Selectin cell surface expression (rMFI): Medium = 100
From the text: as §1, §2, §3, §4, §5

HLA = settings: human neutrophils, Medium = 100
Method: Isolation and treatment of neutrophils. Human neutrophils were obtained from fresh peripheral blood by dextran sedimentation and centrifugation on Ficoll-Hypaque followed by hypotonic lysis of residual erythrocytes. […] Cells were resuspended at 3×10^6 neutrophils/ml in HEPES/glucose buffer (150 mM NaCl, 5 mM KCl, 10 mM HEPES, 1.2 mM MgCl2, 1.3 mM CaCl2, 5.5 mM glucose, pH 7.5), and incubated in the absence or presence of distinct agents at 37° C. for the times indicated in the respective legends to figures. Subsequently, cells were pelleted by centrifugation and saved to determine the content of different cell surface antigens by flow cytometry.
Monoclonal antibodies. The following monoclonal antibodies were used: TS1/11 anti-CD11a, Bear-1 anti-CD11b, TP1/36.1 anti-CD43, HP2/9 anti-CD44, Leu-8 anti-L-selectin, and W6/32, specific for a monomorphic determinant on HLA-A, B molecules. P3X63 myeloma culture supernatant was used as a negative control. The antibodies are commercially available.
Immunofluorescence flow cytometry. Immunofluorescence flow cytometry analysis was performed in a FACStar-Plus and a FACScan flow cytometers (Becton-Dickinson). Neutrophils were incubated at 4° C. with the corresponding monoclonal antibody followed by washing and labelling with a fluorescein isothiocyanate (FITC)-labelled-goat anti-mouse IgG antibody (DAKO, Glostrup, Denmark). Mean fluorescence intensity (MFI) in linear scale was obtained from at least 7000 cells in each sample, and the fluorescence produced by the myeloma P3X63 supernatant was considered as background. Results were expressed as relative MFI (rMFI), such that
as §4, §5

neutrophils = assay: Toxicity for neutrophils; assay type: cell-based, human
From the text: as §1

[1] = Body weight evaluation in the TNB colitis rat model; assay type: in vivo; settings: Wistar rat, Mean ± SEM
Method: The therapeutic potential for the treatment of ulcerative colitis of IEC01 at 2.5 and 5 mg/kg and IES01 at 2.5 mg/kg, was evaluated after their administration by oral route during 14 days (7 days of preventive treatment and 7 days of therapeutic treatment) using the rat model of experimental colitis induced by TNB (2,4,6-trinitrobenzenesulphonic acid). As reference parameters, the body weight, wet colon weight and score macroscopic evaluation were evaluated after 24 hours and after 7 days of the intraluminal administration of TNB in the colon.

## CCCCCCCCCCCCCCCCCCOCC(COP(=O)([O-])OCC[N+](C)(C)C)OC (stereo not drawn) [IEC01, Edelfosine]
CD44; 10 ng/ml
  CD44 cell surface expression (rMFI): 97 ± 2
CD44; 100 ng/ml
  CD44 cell surface expression (rMFI): 84 ± 4
CD44; 500 ng/ml
  CD44 cell surface expression (rMFI): 75 ± 7
CD44; 1 μg/ml
  CD44 cell surface expression (rMFI): 48 ± 9
CD44; 5 μg/ml
  CD44 cell surface expression (rMFI): 40 ± 8
L-selectin (CD62L); after correcting for the different molecular weights
  times more effective than aceclofenac in promoting L-selectin down-regulation: 100 times
L-selectin (CD62L); converted from μg/ml values, read-out: IC50 for L-selectin down-regulation, corrected for molecular weight
  IC50: 0.194 µM
L-selectin (CD62L); human neutrophils
  concentration at which L-selectin reduction reaches a maximum: 1 µg/mL
L-selectin (CD62L); human neutrophils (FIG. 1)
  IC50 for L-selectin down-regulation: about 0.1 μg/ml
L-selectin (CD62L); human neutrophils (data not shown)
  time for decrease in cell surface L-selectin content to reach a maximum: ≤ 5 min
L-selectin (CD62L); human neutrophils, 10 ng/ml
  L-Selectin cell surface expression (rMFI): 83.5 ± 4
L-selectin (CD62L); human neutrophils, 100 ng/ml
  L-Selectin cell surface expression (rMFI): 56 ± 6
L-selectin (CD62L); human neutrophils, 500 ng/ml
  L-Selectin cell surface expression (rMFI): 35 ± 5.5
L-selectin (CD62L); human neutrophils, 1 μg/ml
  L-Selectin cell surface expression (rMFI): 18 ± 6
L-selectin (CD62L); human neutrophils, 5 μg/ml
  L-Selectin cell surface expression (rMFI): 22 ± 8
HLA; 10 ng/ml
  HLA cell surface expression (rMFI): 101 ± 5
HLA; 100 ng/ml
  HLA cell surface expression (rMFI): 100 ± 4
HLA; 500 ng/ml
  HLA cell surface expression (rMFI): 99 ± 5
HLA; 1 μg/ml
  HLA cell surface expression (rMFI): 102 ± 6
HLA; 5 μg/ml
  HLA cell surface expression (rMFI): 101 ± 5
neutrophils
  concentrations toxic for neutrophils: higher than 50 μg/ml
[1]; 2.5 mg/Kg p.o.
  Body weight DAY 1: 233.5 ± 3.07 g
  Body weight DAY 2: 236.0 ± 3.42 g
  Body weight DAY 4: 240.3 ± 3.60 g
  Body weight DAY 7: 210.6 ± 3.05 g
  Body weight DAY 8: 214.8 ± 3.41 g
  Body weight DAY 11: 234.4 ± 4.53 g
  Body weight DAY 12: 241.0 ± 4.04 g
  Body weight DAY 13: 244.2 ± 4.16 g
  Body weight DAY 14: 249.4 ± 4.42 g
[1]; 5.0 mg/Kg p.o
  Body weight DAY 1: 227.4 ± 1.21 g
  Body weight DAY 2: 229.1 ± 1.05 g
  Body weight DAY 4: 235.9 ± 1.63 g
  Body weight DAY 7: 207.4 ± 1.90 g
  Body weight DAY 8: 216.2 ± 2.56 g
  Body weight DAY 11: 237.6 ± 3.35 g
  Body weight DAY 12: 245.2 ± 3.17 g
  Body weight DAY 13: 250.6 ± 3.31 g
  Body weight DAY 14: 253.6 ± 5.34 g
